Target: Metabotropic glutamate receptor 4 (Homo sapiens, UniProt Q14833)
Assay: Intracellular Ca2+ Mobilization Assay (FLIPR)
Procedure: A monoclonal HEK-293 cell line stably transfected with a cDNA encoding for the human mGlu4 receptor was generated. Cells were cultured according to standard protocols (Freshney, 2000) in Dulbecco's Modified Eagle Medium with high glucose supplemented with 1 mM glutamine, 10% (vol/vol) heat-inactivated bovine calf serum, penicillin/streptomycin, 50 μg/ml hygromycin and 15 μg/ml blasticidin (all cell culture reagents and antibiotics from Invitrogen, Basel, Switzerland).About 24 hrs before an experiment, 5×10^4 cells/well were seeded in poly-D-lysine coated, black/clear-bottomed 96-well plates. The cells were loaded with 2.5 μM Fluo-4AM in loading buffer (1×HBSS, 20 mM HEPES) for 1 hr at 37° C. and washed five times with loading buffer. The cells were transferred into a Functional Drug Screening System 7000 (Hamamatsu, Paris, France), and 11 half logarithmic serial dilutions of test compound at 37° C. were added and the cells were incubated for 10-30 min. with on-line recording of fluorescence. […]

Metabotropic glutamate receptor 4, sequence (Q14833 whole entry): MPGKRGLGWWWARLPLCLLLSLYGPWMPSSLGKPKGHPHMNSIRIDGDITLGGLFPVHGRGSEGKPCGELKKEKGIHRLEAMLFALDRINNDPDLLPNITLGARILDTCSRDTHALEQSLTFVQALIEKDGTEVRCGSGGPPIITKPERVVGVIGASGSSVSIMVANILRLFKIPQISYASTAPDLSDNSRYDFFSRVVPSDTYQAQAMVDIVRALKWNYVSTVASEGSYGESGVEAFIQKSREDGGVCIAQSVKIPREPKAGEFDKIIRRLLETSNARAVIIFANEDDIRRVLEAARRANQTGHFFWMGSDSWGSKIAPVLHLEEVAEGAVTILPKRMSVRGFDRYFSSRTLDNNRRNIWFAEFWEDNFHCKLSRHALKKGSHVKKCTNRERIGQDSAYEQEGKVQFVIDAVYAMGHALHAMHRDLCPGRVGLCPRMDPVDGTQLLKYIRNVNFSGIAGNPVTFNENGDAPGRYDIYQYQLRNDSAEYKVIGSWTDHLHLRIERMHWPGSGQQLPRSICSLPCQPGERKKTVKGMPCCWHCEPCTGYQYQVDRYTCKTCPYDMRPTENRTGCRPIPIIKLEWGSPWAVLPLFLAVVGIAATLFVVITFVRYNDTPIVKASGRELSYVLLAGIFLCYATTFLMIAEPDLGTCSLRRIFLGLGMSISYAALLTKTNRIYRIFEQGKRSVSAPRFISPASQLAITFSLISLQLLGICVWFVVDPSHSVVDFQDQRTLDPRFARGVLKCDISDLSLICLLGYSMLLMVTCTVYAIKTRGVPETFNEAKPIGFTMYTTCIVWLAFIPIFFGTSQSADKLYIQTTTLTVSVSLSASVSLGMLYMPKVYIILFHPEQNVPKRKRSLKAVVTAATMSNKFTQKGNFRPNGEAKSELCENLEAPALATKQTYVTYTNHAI

CC(C)(C)c1cnn(-c2cc(F)c(NS(=O)(=O)c3cccc(Cl)c3Cl)c(F)c2)c1 [US12065399, Example 59]
EC50: 9.28 µM

From BindingDB's records for patent US12065399 (Hoffmann-La Roche, 2024)
